Reference: patent publication US12527782B2, “Use of hexokinase 2/mitochondria-detaching compounds for treating hexokinase-2 (HK2)-expressing cancers” (Vidac Pharma Ltd., priority 2016, dated 2026)
Entries after “also recorded” stand apart in the source; their conditions may differ.

Legend:
VDAC1/HK2 complex = biological target: T1, VDAC1/HK2 complex (Homo sapiens, UniProt P52789); test: Microscale Thermophoresis (MST) dissociation of VDAC1/HK2 complex; type: binding; conditions: cell-free MST; HK2 pre-incubated with 1.5 μM VDAC1
T1 construct: host or cells: E. coli (HK2); sheep liver mitochondria (VDAC1)
T1 sequence (P52789 whole entry, one chain of several): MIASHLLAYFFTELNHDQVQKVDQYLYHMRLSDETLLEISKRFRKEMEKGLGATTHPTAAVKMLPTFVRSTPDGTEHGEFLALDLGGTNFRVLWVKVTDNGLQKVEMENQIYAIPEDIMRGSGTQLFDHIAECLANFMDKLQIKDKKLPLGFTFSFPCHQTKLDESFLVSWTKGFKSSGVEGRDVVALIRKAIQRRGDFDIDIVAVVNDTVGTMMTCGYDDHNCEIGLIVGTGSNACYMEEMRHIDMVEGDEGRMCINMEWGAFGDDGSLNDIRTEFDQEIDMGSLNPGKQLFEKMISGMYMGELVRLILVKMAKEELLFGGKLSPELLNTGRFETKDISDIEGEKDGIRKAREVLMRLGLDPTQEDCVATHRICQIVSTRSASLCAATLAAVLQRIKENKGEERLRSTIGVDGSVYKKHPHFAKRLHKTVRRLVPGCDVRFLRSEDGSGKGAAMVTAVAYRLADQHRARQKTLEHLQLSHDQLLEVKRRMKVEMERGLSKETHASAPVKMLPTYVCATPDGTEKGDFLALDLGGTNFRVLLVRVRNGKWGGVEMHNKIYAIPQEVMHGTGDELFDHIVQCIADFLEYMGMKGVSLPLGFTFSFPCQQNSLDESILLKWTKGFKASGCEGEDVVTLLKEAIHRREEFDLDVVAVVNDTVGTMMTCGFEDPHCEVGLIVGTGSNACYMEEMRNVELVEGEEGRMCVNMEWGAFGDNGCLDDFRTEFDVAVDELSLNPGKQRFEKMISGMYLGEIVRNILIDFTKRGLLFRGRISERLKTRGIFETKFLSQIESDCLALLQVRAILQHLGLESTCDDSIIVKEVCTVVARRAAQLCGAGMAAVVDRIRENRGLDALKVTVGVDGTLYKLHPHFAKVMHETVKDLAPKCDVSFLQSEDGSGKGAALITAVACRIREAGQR
Procedure: A431 (human skin SCC), HT-297.T (human AK), and HaCaT transformed normal keratinocyte cell lines were from ATCC (Manassas, VA) and were maintained in DMEM supplemented with 10% FCS, 4 mM L-Gln, 1 mM sodium pyruvate, 100 U/mL penicillin, 1 μg/mL streptomycin. Human HK1 and HK2 plasmids were purchased from Addgene (Cambridge, MA) and were purified from E. Coli. VDAC1 was purified from sheep liver mitochondria as described (Arbel et al. 2012, incorporated herein by reference). Human skin tissue microarray (SK208 and SK 805) were purchased from US Biomax Inc. (Rockville, MD).
Studies were conducted on Nanotemper Monolith NT.115 (Munich, Germany). HK1 and HK2 were labeled using Monolith™ NT.115 Protein Labeling Kit BLUE-NHS. As a preliminary study to form the VDAC1-HK complexes, various concentrations of VDAC1 were added to 67 nM HK1 or 71 nM HK2. The preferred VDAC1 concentration was determined to be 1.5 μM. For dissociation studies, HKs were pre-incubated with VDAC1 for 10 minutes and various concentrations of Formula C were added for an additional 10 minutes. MST default parameters were used and analysis was with Nanotemper analysis software. […]
The activity of Formula C in a cell-free assay was evaluated using Microscale Thermophoresis (MST) analysis, which is based on altered movement of a protein in a temperature gradient when bound to other molecules. […]

[1] = test system: AK/cSCC mouse model of chronic UVB exposure; test: AK/cSCC mouse model of chronic UVB exposure: histopathology and IHC of epidermis; type: in vivo; conditions: for HK2 protein levels in AK areas (IHC): 5% Formula C
Procedure: The formulation ingredients for vehicle, 2.5%, and 5% Formula C ointment consisted of: 32% Gelucire44/14® (Gattefosse, Saint-Priest, France), and 68% combined Labrasol® (Gattefosse, Saint-Priest, France) with corresponding amount of Formula C (w/w). New ointments were prepared every 2 weeks. The 40% topical solution was prepared just prior to use by mixing (w/w) 60% propylene glycol (Sigma, St. Louis, MO, USA) with 40% Formula C.
Histopathological analysis and IHC was performed according to standard protocols. Primary antibodies used: rabbit anti-HK1 and rabbit anti-HK2 (C35C4 and C64G5, CST, Danvers, MA), rabbit anti cleaved caspase 3 (PP229, Biocare Medical, Concord, CA), Secondary antibody was goat anti-Rabbit IgG(H+L) (474-1506, KPL, Gaithersburg, MD). Rabbit anti-CD3 (SP7), rabbit anti-F4/80 (SB-M3072, SB-M4152, Nordic Biosite, Taby, Sweden), mouse anti-Langerin/CD207 (DDX0361, Dendritics, Lyon, France). For these three primary antibodies, a polymer system was used as a secondary antibody (KDB-10046 and KDB-10007, Nordic Biosite, Taby, Sweden). Semi-quantitative analysis was done in a blinded manner by a single experienced pathologist scoring ×40 high power fields, 7 different fields per slide.
The effect of Formula C on cell proliferation and apoptosis was tested in an AK/cSCC mouse model of chronic UVB exposure. Forty-eight SKH-1 hairless female mice were chronically exposed to UVB radiation for 16 weeks. By that time, more than 60% of the animals had developed at least one SCC lesion. Three days after the final irradiation dose, the mice were randomly assigned to 1 of 4 treatment groups (N=12 mice/group) and a 50-day treatment phase started. Treatment groups included: vehicle, 2.5% or 5% Formula C ointment applied once-daily for 50 days, or 40% Formula C topical solution applied once-daily for the first 5 days of every three-week cycle (total of three treatment cycles).

[2] = Phase 1a single topical application, safety and tolerability; type: in vivo, human; conditions: healthy volunteers
Procedure: The Phase 1a clinical trial was a randomized, double-blinded, placebo-controlled, dose-escalation study in healthy older-adult volunteers to evaluate the safety, tolerability, and pharmacokinetics of a single topical dermal application of Formula C ointment. The study was conducted under FDA IND in a Phase 1 unit in the United States.
Fifteen healthy volunteers, aged 35-70, were sequentially assigned to 1 of 3 consecutive treatment cohorts (5%, 10% or 20% Formula C ointment, respectively). Five subjects were randomized in a double-blind fashion in each dose cohort: 4 subjects received active Formula C ointment and 1 received matched placebo (0% Formula C; vehicle control). The study ointment (250 mg) was applied once to a 25 centimeter squared area of skin on the forehead of each volunteer.

[3] = test system: Lung (NSCLC, epidermoid) LXFE 937; test: CFA, LXFE 937; type: cell-based, human; conditions: PDX/CFA
Procedure: (§1) CFA was performed by Charles River Laboratories (Freiburg, Germany) in 96-well plate format according to a modified two-layer soft agar assay. The origin of the tumor xenografts has been described (Fiebig et al. 1989, incorporated herein by reference). The list of tumors used in this study is detailed in Table 1.

[4] = test system: Pancreas PAXF Mia-Pa-Ca-2; test: CFA, PAXF Mia-Pa-Ca-2; type: cell-based, human; conditions: Cell line/CFA
Procedure: as §1

Prostate PC-3 = test: XTT cell viability assay, PC-3; type: cell-based, human; conditions: Cell line/XTT
Procedure: For XTT assays, cells were plated in 96-well plates (5,000 cells per well) for 24 hours. Cells were then incubated with different concentrations of Formula C in triplicates for 72 hr in DMEM supplemented with 0.5% FCS and 5 mM Glucose. Cell viability was evaluated using 2,3-bis-(2-methoxy-4-nitro-5-sulfophenyl)-2H-tetrazolium-5-carboxanilide (XTT)-based colorimetric assay kit (Biological Industries Ltd., Kibbutz Beit-Haemek, Israel). The optical density was measured by an Infinite 200 ELISA reader at 450 nm and reference was measured at 630 nm (Tecan, Männedorf, Switzerland).

Melanoma MEXF 535 = test: CFA, MEXF 535; type: cell-based, human; conditions: PDX/CFA
Procedure: as §1

Lung (SCLC) LXFS 2156 = test: CFA, LXFS 2156; type: cell-based, human; conditions: PDX/CFA
Procedure: as §1

CC/C=C\CC1C(=O)CCC1CC(=O)Oc1cccc2cccnc12 (stereo not drawn) [Formula C]
IC50 (VDAC1/HK2 complex): 92 nM | cleaved caspase-3 positive cells (IHC), apoptosis in epidermis ([1]; UVB-exposed SKH-1 mice, Day 50): induces apoptosis; also recorded: statistically significant induction of apoptosis | mitotic index in AK regions of the skin (epidermis) ([1]; UVB-exposed SKH-1 mice, Day 50, all Formula C treatment groups vs vehicle): reduces cell proliferation; also recorded: significantly reduced | epidermal thickness (histopathology) ([1]; UVB-exposed SKH-1 mice, topical treatment, data not shown): thinner epidermis | HK2 staining in epidermis (IHC) ([1]; UVB-exposed mice, 5% Formula C ointment, 50 days of treatment): decreases after 50 days; also recorded: HK2 staining levels are low | HK2 protein levels in AK areas (IHC) ([1]; UVB-exposed mice, 2 days of treatment, satellite study): dramatic decrease in HK2 protein levels | HK2 protein levels in AK areas (IHC) ([1]; UVB-exposed mice, one day of treatment, data not shown): did not show this effect | clinically significant changes at application sites, vital signs, physical examinations, clinical laboratory results, ECGs, Holter monitors ([2]; single topical application): No clinically significant changes | severity and course of adverse events ([2]; single topical application): mild, short-lived and reversible | serious adverse events ([2]; single topical application of 250 mg 5%, 10% or 20% ointment to 25 cm2 forehead): No serious adverse events | IC50 [3]: 5570 nM | IC50 [4]: 1970 nM | IC50 (Prostate PC-3): 1200 nM | IC50 (Melanoma MEXF 535): 538 nM | IC50 (Lung (SCLC) LXFS 2156): 3560 nM
